In PMC12211128, “Safety, tolerability, pharmacokinetic and pharmacodynamic effects of the muscarinic M1 positive allosteric modulator VU0467319 for Alzheimer’s disease: a single ascending-dose study in healthy participants” (Alzheimer's Research & Therapy, 2025):
Marks after values point to notes of the source that are not given here.

Tested on: healthy participants
Assay: Incidental visual memory ERP paradigm
Type: in vivo, human
Settings: for Mean amplitude over the parietal cortex, Incidental Memory task, Novel trials / Mean amplitude over the parietal cortex, Incidental Memory task, Repeat trials: mean (SD)
Description: Following the cognitive battery, an electrophysiology recording was set up. Visual and auditory ERPs were recorded using a 128-channel Geodesic sensor net (EGI, Inc., Eugene, OR; [37, 38]). The electrophysiological recording was sampled at 250 Hz with filters set at 0.1–100 Hz. During data collection, all electrodes were referenced to vertex (Cz). The recording session lasted approximately 30 min.
(§1) A passive incidental visual memory paradigm (120 trials, 8 min; [38]) was used to evaluate changes in basic memory processes. Participants were asked to view a slide show of novel color photographs depicting complex natural scenes (different sets of images were used at pre-dose vs. post-dose administration test sessions). A small subset (n = 10) of the stimuli was presented repeatedly (× 5 each) throughout the session; the rest (n = 50) were shown once. To encourage attention to the stimulus sequence, 20 attention probes (a yellow smiley face) were presented throughout the test session and required a button press response. The task duration was approximately 7 min.
ERP processing and Analysis: Single-trial ERPs were derived by extracting a 100-ms pre-stimulus baseline and a 900 ms post-stimulus interval. The trials were screened for ocular and motor artifacts using automated procedures with standard threshold settings (NetStation 4.4, EGI, Inc) and verified using manual review. Data for electrodes characterized by consistent artifacts were replaced using the spherical spline interpolation algorithm. If more than 15 electrodes within a trial were noisy, the entire trial was discarded. Remaining artifact-free trials were averaged separately for each condition (standard vs. oddball; novel vs. repeated images), re-referenced to an average reference, and baseline corrected. For individual participant’s data to be included in the analysis, each condition average had to have a minimum of 10 artifact-free trials.
Statistical analysis focused on a priori selected electrode clusters corresponding to frontal, central, and parietal midline locations (Fz, Cz, Pz in 10–20 notation), confirmed using spatial principal components analysis. Mean amplitudes were calculated within 250–400 ms (frontal P3a), 300–500 ms (parietal P300), and 500–800 ms (parietal P600) temporal windows. These a-priori selected windows were confirmed using temporal principal components analysis.
Analyses for the auditory and visual oddball ERPs focused on the parietal (P300) and frontal (P3a) responses to standard and target stimuli. Differences in the amplitude, latency, and scalp topography of the responses were examined. […] For the incidental memory paradigm, differences in the mean amplitude of the parietal P300/P600 responses to repeated vs. novel presentations. The amplitude of the parietal P300/P600 waveform measures stimulus recognition. A larger positive amplitude for repeated compared to novel images indicates spontaneous formation of a memory trace.
as §1, with “(Key & Dykens, 2014))” for “[38])”, “once. All stimuli were presented in random order for 1500 ms with a random interstimulus interval of 1300-1600 ms.” for “once.”, “minutes.” for “min.”

[1] = SAD study, 120mg, Pre-Drug, n = 5
[2] = VU319 120 mg, fasting, post-drug session
[3] = VU319 120 mg, fasting, pre-drug session
[4] = VU319 120 mg, fed, post-drug session
[5] = VU319 120 mg, fed, pre-drug session

Structure (SMILES): Cn1cc2c(-c3cc(F)c(CN4Cc5ncccc5C4=O)c(F)c3)cccc2n1 [VU319]
- Incidental memory, novel vs repeated images (120 mg, fasted condition, either session, both p > 0.2): did not show a difference
- Incidental memory parietal P300/P600 amplitude, repeated vs novel, effect size d (120 mg, fed condition, p = 0.018): 0.91
- Incidental memory parietal P300/P600 amplitude, repeated vs novel, effect size d (400 mg, p = 0.098): 0.83
- Incidental memory parietal P300/P600 amplitude, repeated vs novel, effect size d (600 mg, p = 0.09): 0.86
- Incidental memory P300/P600 amplitude, repeated vs novel, higher two doses compared to placebo, effect size d (400 and 600 mg): > 0.8
- Mean amplitude over the parietal cortex, Incidental Memory task, Novel trials (SAD study, 60 mg, Post-Drug): 0.87 (1.92) µV
- Mean amplitude over the parietal cortex, Incidental Memory task, Repeat trials (SAD study, 60 mg, Post-Drug): 1.25 (1.02) µV
- Mean amplitude over the parietal cortex, Incidental Memory task, Novel trials (SAD study, 60 mg, Pre-Drug): 0.49 (2.16) µV
- Mean amplitude over the parietal cortex, Incidental Memory task, Repeat trials (SAD study, 60 mg, Pre-Drug): 0.77 (1.85) µV
- Mean amplitude over the parietal cortex, Incidental Memory task, Novel trials (SAD study, 120 mg, Post-Drug): 1.67 (2.01) µV
- Mean amplitude over the parietal cortex, Incidental Memory task, Repeat trials (SAD study, 120 mg, Post-Drug): 2.16 (1.69) µV
- Mean amplitude over the parietal cortex, Incidental Memory task, Novel trials [1]: 2.3 (1.78)^# µV
- Mean amplitude over the parietal cortex, Incidental Memory task, Repeat trials [1]: 2.66 (2.5)^# µV
- Mean amplitude over the parietal cortex, Incidental Memory task, Novel trials (SAD study, 240 mg, Post-Drug): 1.76 (1.4) µV
- Mean amplitude over the parietal cortex, Incidental Memory task, Repeat trials (SAD study, 240 mg, Post-Drug): 2.19 (1.37) µV
- Mean amplitude over the parietal cortex, Incidental Memory task, Novel trials (SAD study, 240 mg, Pre-Drug): 1.22 (1.44) µV
- Mean amplitude over the parietal cortex, Incidental Memory task, Repeat trials (SAD study, 240 mg, Pre-Drug): 2.14 (1.27) µV
- Mean amplitude over the parietal cortex, Incidental Memory task, Novel trials (SAD study, 400 mg, Post-Drug): 2.45 (1.79) µV
- Mean amplitude over the parietal cortex, Incidental Memory task, Repeat trials (SAD study, 400 mg, Post-Drug): 3.14 (2.3) µV
- Mean amplitude over the parietal cortex, Incidental Memory task, Novel trials (SAD study, 400 mg, Pre-Drug): 2.35 (1.07) µV
- Mean amplitude over the parietal cortex, Incidental Memory task, Repeat trials (SAD study, 400 mg, Pre-Drug): 1.91 (1.19) µV
- Mean amplitude over the parietal cortex, Incidental Memory task, Novel trials (SAD study, 600 mg, Post-Drug): 1.98 (0.97) µV
- Mean amplitude over the parietal cortex, Incidental Memory task, Repeat trials (SAD study, 600 mg, Post-Drug): 3.17 (1.37) µV
- Mean amplitude over the parietal cortex, Incidental Memory task, Novel trials (SAD study, 600 mg, Pre-Drug): 2.47 (1.3) µV
- Mean amplitude over the parietal cortex, Incidental Memory task, Repeat trials (SAD study, 600 mg, Pre-Drug): 2.74 (1.63) µV
- Mean amplitude over the parietal cortex, Incidental Memory task, Novel trials [2]: 1.0 (1.39) µV
- Mean amplitude over the parietal cortex, Incidental Memory task, Repeat trials [2]: 1.48 (1.3) µV
- Mean amplitude over the parietal cortex, Incidental Memory task, Novel trials [3]: 1.34 (1.09) µV
- Mean amplitude over the parietal cortex, Incidental Memory task, Repeat trials [3]: 1.46 (1.45) µV
- Mean amplitude over the parietal cortex, Incidental Memory task, Novel trials [4]: 1.04 (1.81) µV
- Mean amplitude over the parietal cortex, Incidental Memory task, Repeat trials [4]: 2.43 (1.59) µV
- Mean amplitude over the parietal cortex, Incidental Memory task, Novel trials [5]: 1.0 (0.95) µV
- Mean amplitude over the parietal cortex, Incidental Memory task, Repeat trials [5]: 0.88 (2.27) µV
